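Results reflect a 48-hour exposure of cells in 96-well plates to compound at five concentrations. TGI: concentration producing complete growth inhibition.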 Some results are limits rather than exact numbers.

Test systems include A498 renal; OVCAR-3 ovarian; KM12 colon; SF-295 CNS; SN12C renal; RPMI-8226 leukemia; SK-MEL-2 melanoma; SK-MEL-28 melanoma; RXF 393 renal; LOX IMVI melanoma; HL-60(TB) leukemia; EKVX NSCLC; MDA-N; SW-620 colon; HOP-92 NSCLC; TK-10 renal; SK-MEL-5 melanoma; SF-268 CNS.
Common to all, as to assay: NCI-60 cell line screen, 48 h

As for `COc1cc(/C=C2\N=C(c3ccccc3)N(/N=C/c3cc4cc(C)ccc4nc3Cl)C2=O)ccc1O`, the TGI with A498 renal was 55.3 µM; in the assay on OVCAR-3 ovarian it was greater than 100 µM; in the assay on KM12 colon, greater than 100 µM; in the assay with SF-295 CNS, greater than 100 µM; with SN12C renal it was 77.1 µM; in the assay on RPMI-8226 leukemia, 80.8 µM. Also, the TGI with SK-MEL-2 melanoma was 38.4 µM; with SK-MEL-28 melanoma it was greater than 100 µM; in the assay with RXF 393 renal, greater than 100 µM; with LOX IMVI melanoma, greater than 100 µM; in the assay on HL-60(TB) leukemia, 76.6 µM; in the assay on EKVX NSCLC, greater than 100 µM. The TGI in the assay with MDA-N was 32 µM; with SW-620 colon, greater than 100 µM; in the assay on HOP-92 NSCLC, greater than 100 µM; with TK-10 renal, greater than 100 µM; with SK-MEL-5 melanoma it was greater than 100 µM; in the assay with SF-268 CNS it was greater than 100 µM.
Turning to `Brc1ccc(C2(N3CCCCC3)CCCCC2)s1`, the TGI is greater than 100 µM in the assay on A498 renal; greater than 100 µM in the assay with OVCAR-3 ovarian; greater than 100 µM in the assay on KM12 colon; greater than 100 µM in the assay on SF-295 CNS; greater than 100 µM in the assay with SN12C renal; 39.5 µM in the assay on RPMI-8226 leukemia. Also, the TGI in the assay with SK-MEL-2 melanoma was 37 µM; in the assay with RXF 393 renal, 33.3 µM; in the assay with LOX IMVI melanoma, 29 µM; with HL-60(TB) leukemia, 41.8 µM; in the assay on EKVX NSCLC, greater than 100 µM; with MDA-N, greater than 100 µM. Besides, the TGI in the assay with SW-620 colon is greater than 100 µM; with HOP-92 NSCLC it was 51.2 µM; in the assay with TK-10 renal, greater than 100 µM; in the assay on SK-MEL-5 melanoma, 22.3 µM; in the assay with SF-268 CNS, greater than 100 µM.
As to `COC(=O)/C=C1/OC(c2ccccc2)=CC1=O`, the TGI turned out to be 18.7 µM with A498 renal; 39.4 µM with OVCAR-3 ovarian; 32.4 µM with KM12 colon; 21.8 µM with SF-295 CNS; 38.9 µM in the assay on SN12C renal; 23.2 µM in the assay with RPMI-8226 leukemia. Moreover, the TGI was 47.9 µM with SK-MEL-2 melanoma; greater than 58 µM in the assay with SK-MEL-28 melanoma; 27.7 µM with RXF 393 renal; 30 µM with LOX IMVI melanoma; 6.14 µM in the assay on HL-60(TB) leukemia; greater than 62.2 µM in the assay with EKVX NSCLC. For the same compound, the TGI in the assay with MDA-N is 34.1 µM; in the assay on SW-620 colon, 32.3 µM; in the assay with HOP-92 NSCLC, 52.8 µM; in the assay with TK-10 renal it was 37.2 µM; with SK-MEL-5 melanoma, 51.3 µM; in the assay on SF-268 CNS, 44.7 µM.
For `COc1ccc(N=C/C=C/C(=C/COC(C)=O)OC(C)=O)cc1`, the TGI in the assay on A498 renal is 62.9 µM; in the assay with OVCAR-3 ovarian it was greater than 100 µM; in the assay on KM12 colon, greater than 100 µM; with SF-295 CNS, greater than 100 µM; in the assay on SN12C renal it was 74.9 µM; with RPMI-8226 leukemia, greater than 100 µM. Further, the TGI was 48.1 µM with SK-MEL-2 melanoma; 65.9 µM in the assay on SK-MEL-28 melanoma; 57.4 µM in the assay on RXF 393 renal; greater than 100 µM in the assay on LOX IMVI melanoma; 98.5 µM with HL-60(TB) leukemia; greater than 100 µM with EKVX NSCLC. The TGI is 43.8 µM with MDA-N; 32.6 µM with SW-620 colon; 57.4 µM in the assay with HOP-92 NSCLC; greater than 100 µM in the assay on TK-10 renal; 76.6 µM with SK-MEL-5 melanoma; 86 µM with SF-268 CNS.
For `Nc1nc(Cl)cc(NCC2(CO)CC(O)C2)n1` (stereo not given), the TGI in the assay on A498 renal, in the assay with OVCAR-3 ovarian, in the assay with KM12 colon, with SF-295 CNS, in the assay with SN12C renal and in the assay with RPMI-8226 leukemia was greater than 100 µM in each case. Besides, the TGI in the assay with SK-MEL-2 melanoma, in the assay on SK-MEL-28 melanoma, with RXF 393 renal, in the assay on LOX IMVI melanoma, with HL-60(TB) leukemia and in the assay with EKVX NSCLC was greater than 100 µM each time. For the same compound, the TGI in the assay with MDA-N, in the assay with SW-620 colon, with HOP-92 NSCLC, in the assay on TK-10 renal, in the assay with SK-MEL-5 melanoma and with SF-268 CNS was greater than 100 µM each time.
Consider `COc1cccc2c(=O)c3c(O)c4cc(N(C)C)ccc4c(OC(C)=O)c3oc12`, for which the TGI with A498 renal is 60.8 µM; in the assay with OVCAR-3 ovarian, 13.6 µM; in the assay on KM12 colon, 34.8 µM; in the assay on SF-295 CNS, greater than 100 µM; in the assay on SN12C renal, 25.5 µM; in the assay on RPMI-8226 leukemia it was 52.6 µM. The TGI in the assay with SK-MEL-2 melanoma was found to be 46.9 µM; in the assay on SK-MEL-28 melanoma, 22.3 µM; in the assay with RXF 393 renal it was 18.6 µM; in the assay on LOX IMVI melanoma it was 24.3 µM; with HL-60(TB) leukemia it was 14.2 µM; in the assay on EKVX NSCLC it was 25.8 µM. The TGI is 27.8 µM in the assay on MDA-N; 22.4 µM in the assay on SW-620 colon; 39.3 µM with HOP-92 NSCLC; 29.3 µM with TK-10 renal; 25.1 µM in the assay with SK-MEL-5 melanoma; 68.4 µM with SF-268 CNS.
With `C/C(O)=C/c1nc2sc(C)c(C)c2c(=O)s1`, the TGI in the assay with A498 renal, in the assay on OVCAR-3 ovarian, in the assay with KM12 colon, in the assay on SF-295 CNS, in the assay on SN12C renal and in the assay on RPMI-8226 leukemia was greater than 100 µM each time. Besides, the TGI in the assay on SK-MEL-2 melanoma was 65.1 µM; in the assay with SK-MEL-28 melanoma, greater than 100 µM; in the assay on RXF 393 renal, greater than 100 µM; with LOX IMVI melanoma it was greater than 100 µM; in the assay on HL-60(TB) leukemia it was greater than 100 µM; with EKVX NSCLC, greater than 100 µM. The TGI with MDA-N, in the assay on SW-620 colon, with HOP-92 NSCLC, in the assay on TK-10 renal, in the assay with SK-MEL-5 melanoma and in the assay on SF-268 CNS was greater than 100 µM each time.

Values taken from PubChem BioAssay (NCI).
